Measurements reported in patent US20260308158A1, “TARGETING RNAS ASSOCIATED WITH TAUOPATHIES WITH SMALL MOLECULES” (University of Florida Research Foundation, Incorporated, priority 2023, published 2026).

Assays:
[1] = test system: DDPAC I17T MAPT mini-gene pre-mRNA; test: Chem-CLIP in HeLa cells transfected with DDPAC I17T mini-gene; format: cell-based; conditions: 1.5 μM
Experimental: (§1) Measuring Cellular Occupancy by Chem-CLIP and C-Chem-CLIP. LAN5 cells were grown to ~80% confluency in 100 mm diameter dishes. HeLa cells were transfected as described in the Luciferase Reporter Assay to Study Exon 10 Alternative Splicing except they were re-plated in 100 mm diameter dishes and grown to ~80% confluency (~1 day). The cells were then treated with 1.5 μM of 3 or 4 for 12 h. For C-Chem-CLIP, dilutions of competing compounds 1 or 2 were pre-incubated with cells for 12 h prior to adding 3. After addition of 3, the cells were incubated for an additional 12 h. After the treatment period, whether for Chem-CLIP or C-Chem-CLIP studies, the cells were washed with 10 mL of 1×DPBS. Ice-cold 1×DPBS (10 mL) was then added to the plate followed by irradiation with 365 nm light in a UV Stratalinker 2400 (Stratagene). Cells were scraped with a cell scraper, transferred to a 15 mL conical vial, and collected by centrifugation. Total RNA was extracted using TRIzol LS Reagent (Invitrogen) per the manufacturer's protocol. […]
(§2) RT-qPCR was performed on RNA samples before and after pull-down as described in Real-Time Quantitative PCR to enable calculation of fold enrichment in the pulled down samples. Relative fold enrichment of tau pre-mRNA was measured using Equation 3: […]

[2] = test system: DDPAC I17T mutant RNA; test: In vitro Chem-CLIP, DDPAC I17T RNA; format: binding; conditions: 50 μM
Experimental: (§3) In Vitro Chemical Cross-linking and Isolation by Pull Down (Chem-CLIP) and Competitive Chem-CLIP (C-Chem-CLIP). Growth medium [Dulbecco's modified eagle medium (DMEM; corning, 10-013-CM) with 1× Glutagro (corning)] and 10% (v/v) fetal bovine serum (FBS; Sigma, 12003C) was inactivated by heating at 95° C. for 15 min and slowly cooling to room temperature. Approximately 10,000 counts of 32P 5′-end labeled tau WT, DDPAC, WT+I17T, or DDPAC+I17T RNA were folded in 10 μL growth medium by heating at 65° C. for 5 min and slowly cooling to room temperature. Chem-CLIP probe 3 or negative control probe 4 was then added into the folded RNA in a total volume of 20 μL, and the mixtures were incubated at 37° C. for 1 h. For C-Chem-CLIP, dilutions of competing compound 2 were incubated with RNA for 30 min before adding 3. […]
(§4) The Chem-CLIP probe 3 or control probe 4 was then clicked to disulfide biotin azide (2 μL of 10 mM solution prepared in DMSO solution per sample; Click Chemistry Tools, catalog no. 1168-10). […] The radioactive signal from bound RNAs (on the beads) and unbound RNAs (in the wash buffer) was measured by using a Beckman Coulter LS6500 Liquid Scintillation Counter as Rbound and Runbound. Enrichment was calculated as the percentage of radiolabeled RNA captured by beads calculated as Rbound/(Rbound+Runbound).

[3] = test system: WT MAPT mini-gene pre-mRNA; test: Chem-CLIP / C-Chem-CLIP in HeLa cells transfected with WT mini-gene; format: cell-based; conditions: 3 at 1.5 μM, HeLa WT mini-gene
Experimental: as §1, §2

[4] = test system: MAPT pre-mRNA in LAN5 cells; test: Chem-CLIP-Map-Seq in LAN5 cells; format: cell-based; conditions: 3 at 1.5 μM
Experimental: Chem-CLIP-Map-Seq. Chem-CLIP-Map-Seq was performed as previously described.^32 Briefly, LAN5 cells were grown to ~80% confluency in 100 mm diameter dishes and treated with 1.5 μM of 3 for 12 h. Total RNA was extracted and pulled down as described in Measuring Cellular Occupancy by Chem-CLIP and C-Chem-CLIP. RT was carried out using 1 μg of RNA pulled down by 3, […] of a MAPT gene-specific primer (5′-[…] (SEQ ID NO: 7)), and SuperScript III (Invitrogen, 18080400) in a total volume of 10 μL per the manufacturer's protocol.
After digestion with RNase A and RNase H (part of the Superscript III protocol), the cDNA from the RT reaction was cleaned up using RNA Clean XP beads (Beckman Coulter) according to the manufacturer's protocol. The purified cDNA was ligated to a 3′ ssDNA adaptor (5′-Phosphate-[…]-[…]-3C spacer (SEQ ID NO: 8)) by incubating 2 μL 10× T4 RNA Ligase Buffer, 1 μL of 1 mM ATP, 10 μL 50% (w/v) PEG 8000, 5 μL cDNA, 1 μL of 20 μM ssDNA adaptor, and 1 μL of T4 RNA Ligase [New England BioLabs, Inc. (NEB)]. The ligated cDNA was purified again with RNAClean XP beads as described above.
PCR amplification was performed with the purified ligated cDNA by using Phusion polymerase (NEB) with cycling conditions of 98° C. for 30 s, 65° C. for 20 s, and 72° C. for 60 s and forward (5′-[…] (SEQ ID NO: 9)) and reverse (5′-[…] (SEQ ID NO: 10)) primers for 25 cycles. […]

[5] = test system: endogenous MAPT pre-mRNA in LAN5 cells; test: Chem-CLIP / C-Chem-CLIP in LAN5 cells; format: cell-based; conditions: 3 at 1.5 μM
Experimental: as §1, §2

[6] = test system: WT I17T mutant RNA; test: In vitro Chem-CLIP, WT I17T RNA; format: binding; conditions: 50 μM
Experimental: as §3, §4

[7] = test system: DDPAC SRE RNA; test: In vitro Chem-CLIP, DDPAC SRE RNA; format: binding
Experimental: as §3, §4

[8] = test system: WT SRE RNA; test: In vitro Chem-CLIP, WT SRE RNA; format: binding
Experimental: as §3, §4

[9] = test system: DDPAC MAPT mini-gene pre-mRNA; test: Chem-CLIP / C-Chem-CLIP in HeLa cells transfected with DDPAC mini-gene; format: cell-based; conditions: 3 at 1.5 μM, HeLa DDPAC mini-gene
Experimental: as §1, §2

[10] = test system: WT I17T MAPT mini-gene pre-mRNA; test: Chem-CLIP in HeLa cells transfected with WT I17T mini-gene; format: cell-based; conditions: 1.5 μM
Experimental: as §1, §2

[11] = in vitro Chem-CLIP, read-out: IC50 for engaging and pull-down of RNA

## C#CCCC1(CCC(=O)NCCN(CCCc2cnc(N)cc2OC)CCCn2cnc3c4ccccc4n(C)c3c2=O)N=N1 [Compound 3]
[1]
  enrichment of mutant reporter: nor was enrichment observed
[2]
  percent pull-down (engagement): 9±0.7%
[3]
  enrichment of MAPT reporter: 3.9±0.1 fold
[4]
  cross-linking site in MAPT RNA: cross-linking occurred to the G in the 5′ CG closing base pair of the A-bulge
[5]
  enrichment of MAPT pre-mRNA: 3.6±0.2 fold
[6]
  percent pull-down (engagement): 15±0.9%
[7]; 10 and 50 μM
  maximum percent pull-down: ~ 40%
[7]; [11]
  IC50: ~1000 nM
[8]; 10 and 50 μM
  maximum percent pull-down: ~ 40%
[8]; [11]
  IC50: ~1000 nM
[9]
  enrichment of MAPT reporter: 3.8±0.1 fold
[10]
  enrichment of mutant reporter: nor was enrichment observed
